{"source": "patent US20250270159A1", "about": "“1-(CYCLOBUTANEMETHYLIDENE)-2, 4, 5-TRIMETHOXYBENZENE COMPOUND AND PREPARATION METHOD AND USE THEREOF” (CHENGDU XINRUI TAIKANG TECHNOLOGY CO., LTD., priority 2023, published 2025)", "key": {"[1]": {"test_system": "rat model of lithium-pilocarpine-induced epilepsy", "assay": "Rat model of lithium-pilocarpine-induced epilepsy (SE), highest seizure grade score", "type": "in vivo, Sprague Dawley (SD) rats", "settings": "50 mg/kg intraperitoneal, 1 h after SE onset; acute phase; Racine 0-6", "experimental": "(1) Experimental Animals: SPF Adult Male Sprague Dawley (SD) Rats, with a Weight of 200-250 g.\nMethylscopolamine bromide, lithium chloride, and pilocarpine were weighed, and experimental drugs were dissolved to working concentrations (100 mg/mL of lithium chloride solution, 1 mg/mLof methylscopolamine bromide solution, and 20 mg/mL of pilocarpine solution) with 0.9% saline. Rats were injected intraperitoneally with lithium chloride (a dose of 127 mg/kg), and 18-20 h later, scopolamine methylbromide (a dose of 1 mg/kg) was injected intraperitoneally. […] Thereafter, an additional dose of 10 mg/kg pilocarpine was injected intraperitoneally every 30 min until the onset of a grade IV or higher status epilepticus (SE)-like seizure without significant intermittent intervals, with a maximum dose of 60 mg/kg.\nModel inclusion criterion: experimental animals presenting continuous seizures of grade IV or higher for 1 h was judged as successful modeling.\nThe rats with successful modeling were randomly divided into three groups, namely a model group, a CTMB group, and a sodium valproate (VPA) group. […]\nReferring to the grading scale of Racine scores, the seizure symptoms of each group of rats after the drug intervention were observed, and the seizure grades of each group of rats in the acute phase were recorded. […]"}, "[2]": {"test_system": "blood-brain barrier permeability, traumatic brain injury (TBI) rats", "assay": "Blood-brain barrier permeability test (Evans blue) in TBI rats", "type": "in vivo, SD rats", "settings": "30 mg/kg ip 2 h after TBI; 24 h after administration; FIG. 2", "experimental": "The experimental grouping and drug administration plan were as follows. • Sham operation group (Group P): saline was given with the same volume as in the CTMB group; • Model group (T group): a blank emulsion was given with the same volume as in the CTMB group; • Medium dose group (Group M): a dose of 30 mg/kg of CTMB emulsion injection was given.\nAfter 2 h of traumatic brain injury (TBI) modeling, the rats in each group were administered with intraperitoneal injection. After 24 h of the administration, 4% Evans blue solution (2.5 mL/kg) was injected into the right tail vein of the rats, and after 1 h, the rats were deeply anesthetized. The rats were perfused with 100 mL of saline through the heart, the brains were rapidly severed and removed and were immediately divided into the left hemisphere, the right hemisphere, the cerebellum, and the brain stem. The brain tissues were weighed to wet weight, soaked in 10 times volume of pure formamide, incubated at 60° C. for 48 h, and centrifuged at 25° C. and 10000 rpm/min for 30 min. The supernatant was aspirated to detect the Evans blue dye by UV spectrophotometry at 622 nm and a standard curve was plotted for quantification, and the final results were shown as Evans blue content per gram of brain tissue (μg/g)."}}, "data": [{"smiles": "COc1cc(OC)c(OC)cc1C=C1CCC1", "note": "[CTMB, 1-(cyclobutylidenemethyl)-2,4,5-trimethoxybenzene]", "values": [{"measurement": "Seizure grade score (highest, SE model rats)", "setting": "[1]", "value": "4.38 ± 0.52"}, {"measurement": "Evans blue exudation (content per gram of brain tissue)", "setting": "[2]", "value": "significantly reduces Evans blue exudation"}]}]}
